Assay results as given in patent US7851466B2, “Pyrimidine compounds and uses thereof” (Synta Pharmaceuticals Corp., priority 2004, dated 2010).

What was measured:
IL-23 = assay: Inhibition of IL-23 in stimulated human PBMC (p19 capture ELISA); format: cell-based
From the text: The level of inhibition of IL-23 inhibition by a compound of the invention can be measured by a similar assay in which human peripheral blood mononuclear cells (PBMC) or human monocytic cell line (THP-1) are stimulated with a combination of human interferon-γ (IFNγ) and lipopolysaccharide (LPS) or a combination of IFNγ and Staphylococcus aureus Cowan I (SAC) in the presence of a test compound. The level of inhibition of IL-23 production can be measured by determining the amount of p19 by using a sandwich ELISA assay with antibodies the recognize p19 subunit of IL-23. IC50 of the test compound can then be determined. One such assay is disclosed herein in Example 30.
Therefore, inhibition of IL-23 in addition to IL-12 is expected. In order to confirm the hypothesis, an assay was established to specifically detect IL-23 using polyclonal antibodies recognizing p19 (R&D Systems, MN), an IL-23 specific subunit. A 96-well plate was coated with the antibodies at 1 μg/ml, and after washing incubated with the supernatants of human peripheral blood mononuclear cells (PBMC). The culture was stimulated with 1 μg/ml of liposaccharide (LPS) (FIG. 2) or 0.025% of S. aureus Cowan I (SAC) (FIG. 1) in the presence of test compound after IFN-γ priming. The captured IL-23 was then detected by a biotinylated goat anti-human p40 antibody that binds to p40 subunit of human IL-12 and IL-23 as a monomer or in the context of the respective heterodimer (Part 840099 of product DY1240 from R&D Systems). The plate was developed by incubation with streptavidin-HRP and then substrate solution (R&D Systems Cat # DY999). Recombinant IL-23 (R&D Systems) was added as standard in the assay. The estimated detection range is from 0.1 to 10 ng/ml, and 1 ng/ml recombinant IL-12 heterodimer (Cell Sciences, MA) and p40 monomer (R&D Systems) were under detection limit. To compare with the inhibition of IL-23, the supernatant was also analyzed for IL-12 heterodimer and total p40 proteins using IL-12 specific ELISA kit (Cell Sciences) and p40 ELISA kit (R&D Systems) respectively.

[1] = system: adjuvant arthritis (AA) in female Lewis rats; assay: Treatment of adjuvant arthritis in rats; format: in vivo, rat; conditions: oral administration once a day for 12 days; experiments repeated four times
Method: Treatment of adjuvant arthritis in rats: Adjuvant arthritis (AA) was induced in female Lewis rats by the intracutaneous injection (base of the tail) of 0.1 mL of a 10 mg/mL bacterial suspension made from ground, heat-killed Mycobacterium tuberculosis H37Ra suspended in incomplete Freund's adjuvant. Rats were given a test compound orally once a day for 12 days, starting the day following the induction. The development of polyarthritis was monitored daily by macroscopic inspection and assignment of an arthritis index to each animal, during the critical period (days 10 to 25 post-immunization).
The intensity of polyarthritis was scored according to the following scheme: (a) Grade each paw from 0 to 3 based on erythema, swelling, and deformity of the joints: 0 for no erythema or swelling; 0.5 if swelling is detectable in at least one joint; 1 for mild swelling and erythema; 2 for swelling and erythema of both tarsus and carpus; and 3 for ankylosis and bony deformity. Maximum score for all 4 paws was thus 12. […]
Experiments with the AA model were repeated four times. […] The arthritis score used in this model was a reflection of the inflammatory state of the structures monitored and the results therefore show the ability of the test compound to provide relief for this aspect of the pathology.

[2] = system: DNBS-induced distal colitis in Wistar derived rats; assay: Dinitrobenzene sulfonic acid-induced inflammatory bowel syndrome model rats; format: in vivo, rat; conditions: oral, 24 and 2 hours before DNBS instillation and then daily for 5 days
Method: Treatment of Crohn's disease in dinitrobenzene sulfonic acid-induced inflammatory bowel syndrome model rats: Wistar derived male or female rats weighing 200±20 g and fasted for 24 hours were used. Distal colitis was induced by intra-colonic instillation of 2,4-dinitrobenzene sulfonic acid (DNBS, 25 mg in 0.5 mL ethanol 30%) after which air (2 mL) was gently injected through the cannula to ensure that the solution remained in the colon. A test compound and/or vehicle was administered orally 24 and 2 hours before DNBS instillation and then daily for 5 days. One control group was similarly treated with vehicle alone while the other is treated with vehicle plus DNBS. The animals were sacrificed 24 hours after the final dose of test compound administration and each colon was removed and weighed. Colon-to-body weight ratio was then calculated for each animal according to the formula: Colon (g)/BW×100. The “Net” increase in ratio of Vehicle-control+DNBS group relative to Vehicle-control group was used as a base for comparison with test substance treated groups and expressed as “% Deduction.” Pyrimidine compounds of this invention (e.g., Compound 12) reproducibly had about 30% deduction. A 30% or more reduction in colon-to-body weight ratio, relative to the vehicle treated control group, was considered significant.
These experiments were repeated three times and the effects were reproducible.

[3] = system: colitis in T cell-reconstituted C.B-17 SCID mice; assay: CD4+ CD45Rb high T cell-reconstituted SCID colitis model mice; format: in vivo, mouse
Method: Treatment of Crohn's disease in CD4^+ CD45Rb^high T cell-reconstituted SCID colitis model mice: Spleen cells were prepared from normal female BALB/c mice. For cell purification, the following anti-mouse antibodies were used to label non-CD4^+ T cells: B220 (RA3-6B2), CD11b (M1/70), and CD8α (53-6.72). All antibodies were obtained from BioSource (Camarillo, Calif.). M450 anti-rat IgG-coated magnetic beads (Dynal, Oslo, Norway) were used to bind the antibodies and negative selection was accomplished using an MPC-1 magnetic concentrator. The enriched CD4^+ cells were then labeled for cell sorting with FITC-conjugated CD45RB (16A, Pharmingen, San Diego, Calif.) and PE-conjugated CD4 (CT-CD4, Caltag, Burlingame, Calif.). CD4^+ CD45RB^high cells were operationally defined as the upper 40% of CD45Rb-staining CD4^+ cells and sorted under sterile conditions by flow cytometry. Harvested cells were resuspended at 4×10^6/mL in PBS and injected 100 μL intraperitoneally into female C.B-17 SCID mice. Pyrimidine compounds of this invention (e.g., Compound 12) and/or vehicle was orally administered once a day, 5 days per week, starting the day following the transfer. The transplanted SCID mice were weighed weekly and their clinical condition was monitored.
Colon tissue samples were fixed in 10% buffered formalin and embedded in paraffin. Sections (4 μm) collected from ascending, transverse, and descending colon were cut and stained with hematoxylin and eosin. The severity of colitis was determined based on histological examination of the distal colon sections, whereby the extent of colonic inflammation was graded on a scale of 0-3 in each of four criteria: crypt elongation, cell infiltration, depletion of goblet cells, and the number of crypt abscesses.
LP lymphocytes were isolated from freshly obtained colonic specimens. After removal of payer's patches, the colon was washed in Ca/Mg-free HBSS, cut into 0.5 cm pieces and incubated twice in HBSS containing EDTA (0.75 mM), DTT (1 mM), and antibiotics (amphotericin 2.5 μg/mL, gentamicin 50 μg/mL from Sigma) at 37° C. for 15 min. Next, the tissue was digested further in RPMI containing 0.5 mg/mL collagenase D, 0.01 mg/mL DNase I (Boehringer Manheim), and antibiotics at 37° C. […]
To measure cytokine production, 48-well plates were coated with 10 μg/mL murine anti-CD3ε antibody (145-2C11) in carbonate buffer (PH 9.6) overnight at 4° C. […] Murine IFNγ was measured using an ELISA kit from Endogen (Cambridge, Mass.), according to the manufacturer's instructions.
The calculated colon-to-body weight ratio was consistent with the histological score, showing attenuation by treatment with the test compound.

**Q.** Which results are given for `Cc1cccc(C=NNc2cc(N3CCOCC3)nc(OCCc3ccccn3)n2)c1` [Compound 12, N-(3-methyl-benzylidene)-N′-[6-morpholin-4-yl-2-(2-pyridin-2-yl-ethoxy)-pyrimidin-4-yl]-hydrazine]?
**A.** inhibition of IL-23 (IL-23; IFN-γ/SAC and IFN-γ/LPS-stimulated human PBMC): inhibited by compound 12 in a dose-dependent manner; inhibitory activity against IL-23 compared with that against IL-12 (IL-23; stimulated human PBMC): slightly lower than that against IL-12; inhibitory activity against IL-23 compared with that against p40 (IL-23; stimulated human PBMC): comparable to that against p40; arthritic score [1]: reproducibly reduced the arthritic score; development of polyarthritis [1]: delayed the development of polyarthritis in a dose-dependent manner; % Deduction (net increase in colon-to-body weight ratio) [2]: about 30%; IFNγ production by LP cells ([3]; LP cells ex vivo in response to anti-CD3 antibody and anti-CD28 antibody, 48 h): greatly diminished the production; colon-to-body weight ratio ([3]; oral administration): attenuation; colonic inflammation (histological analysis) ([3]; oral administration once a day, 5 days per week, compared to vehicle control): reduced colonic inflammation; suppressive effect on colonic inflammation at 10 mg/kg ([3]; oral, dose of 10 mg/kg): substantial reduction
